Experimental data as given in ChEMBL document CHEMBL1201862, “PubChem BioAssay data set” (2004).
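Following 48 hours of exposure in 96-well plates, responses at five concentrations were used to interpolate endpoints linearly. At the GI50, growth is halved.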 The source made the active and inactive calls. No stated cut-off is given here; in the data, active = GI50 up to about 1.1 µM and inactive = higher.

Tests used:
Experiment in all cases: growth of human tumour cells (NCI), 48 h
A549 = test system: A549
ACHN = test system: ACHN
COLO 205 = test system: COLO 205
HCT-15 = test system: HCT-15
HL-60 = test system: HL-60
HOP-92 = test system: HOP-92
KM12 = test system: KM12
MDA-MB-231 = test system: MDA-MB-231
MOLT-4 = test system: MOLT-4
Malme-3M = test system: Malme-3M
NCI-H23 = test system: NCI-H23
OVCAR-3 = test system: OVCAR-3
OVCAR-4 = test system: OVCAR-4
RPMI-8226 = test system: RPMI-8226
SF-539 = test system: SF-539
SK-OV-3 = test system: SK-OV-3
SN12C = test system: SN12C
SNB-19 = test system: SNB-19
SR = test system: SR
A498 = test system: A498

SMILES | GI50 (A549) | GI50 (ACHN) | GI50 (COLO 205) | GI50 (HCT-15) | GI50 (HL-60) | GI50 (HOP-92) | GI50 (KM12) | GI50 (MDA-MB-231) | GI50 (MOLT-4) | GI50 (Malme-3M) | GI50 (NCI-H23) | GI50 (OVCAR-3) | GI50 (OVCAR-4) | GI50 (RPMI-8226) | GI50 (SF-539) | GI50 (SK-OV-3) | GI50 (SN12C) | GI50 (SNB-19) | GI50 (SR) | GI50 (A498)
O=C(Nc1ccccc1)OCCN=c1c2ccccc2ccc2ccccc12 | 19.9 µM (inactive) | 20.9 µM (inactive) | 21 µM (inactive) | 26.1 µM | 17 µM (inactive) | 18.4 µM (inactive) | 19.1 µM (inactive) | 24.9 µM (inactive) | 15.7 µM (inactive) | 18.7 µM (inactive) | 35.1 µM (inactive) | 17.5 µM (inactive) | 25.8 µM (inactive) | 15.5 µM (inactive) | 19.8 µM (inactive) | 32.1 µM (inactive) | 25.5 µM (inactive) | 15.9 µM (inactive) | 18.2 µM (inactive) | –
Nc1ccc(C(=O)O)cc1 [AMINOBENZOIC ACID] | > 100 µM (inactive) | > 100 µM (inactive) | > 100 µM (inactive) | 21.1 µM | > 100 µM (inactive) | > 100 µM (inactive) | > 100 µM (inactive) | 28.1 µM (inactive) | > 100 µM (inactive) | > 100 µM (inactive) | > 100 µM (inactive) | > 100 µM (inactive) | > 100 µM (inactive) | > 100 µM (inactive) | > 100 µM (inactive) | – | 28.7 µM (inactive) | > 100 µM (inactive) | > 100 µM (inactive) | –
O=C1c2cccc3cc([N+](=O)[O-])cc(c23)C(=O)N1O | 33.6 µM (inactive) | 28.1 µM (inactive) | 51.1 µM (inactive) | 32.7 µM | > 100 µM (inactive) | 57 µM (inactive) | 20.6 µM (inactive) | 14.2 µM (inactive) | 28.1 µM (inactive) | 28.4 µM (inactive) | 30.8 µM (inactive) | 28.9 µM (inactive) | 34.1 µM (inactive) | 19.4 µM (inactive) | – | 46.9 µM (inactive) | 33.5 µM (inactive) | 43.9 µM (inactive) | 24.5 µM (inactive) | –
O=C(Nc1ccc2ncccc2c1)c1cc2c(cc1Cl)Sc1nccn1S2(=O)=O | 17.5 µM (inactive) | 31.2 µM (inactive) | 18.7 µM (inactive) | 11 µM | 9.27 µM (inactive) | 27.7 µM (inactive) | 6.4 µM (inactive) | 20.4 µM (inactive) | 18.4 µM (inactive) | 16.7 µM (inactive) | 15.6 µM (inactive) | 21.7 µM (inactive) | 26.2 µM (inactive) | 6.85 µM (inactive) | 20 µM (inactive) | 33.3 µM (inactive) | 17.5 µM (inactive) | 16.4 µM (inactive) | 4.36 µM (inactive) | –
Cc1cc(C)nc(NC(P(=O)(O)O)P(=O)(O)O)n1 | > 100 µM (inactive) | > 100 µM (inactive) | > 100 µM (inactive) | > 100 µM | – | – | > 100 µM (inactive) | > 100 µM (inactive) | – | > 100 µM (inactive) | > 100 µM (inactive) | > 100 µM (inactive) | – | – | > 100 µM (inactive) | > 100 µM (inactive) | – | > 100 µM (inactive) | – | –
Cc1ccc2c(c1C)CC1(Cc3ccc(C)c(C)c3C1=O)C2=O (centres undefined) | 35.7 µM (inactive) | 46 µM (inactive) | > 100 µM (inactive) | > 100 µM | 94.6 µM (inactive) | 34 µM (inactive) | > 100 µM (inactive) | 30.8 µM (inactive) | > 100 µM (inactive) | > 100 µM (inactive) | – | > 100 µM (inactive) | 33.7 µM (inactive) | > 100 µM (inactive) | 28.6 µM (inactive) | – | > 100 µM (inactive) | 59.6 µM (inactive) | > 100 µM (inactive) | –
Cc1cn(C(=O)NC23CC4CC(CC(C4)C2)C3)c(=O)[nH]c1=O | 35.9 µM (inactive) | 27.9 µM (inactive) | 24 µM (inactive) | 25.3 µM | 26.4 µM (inactive) | 51.6 µM (inactive) | 64.4 µM (inactive) | 24.7 µM (inactive) | 41.5 µM (inactive) | 44.7 µM (inactive) | 32.1 µM (inactive) | 88.3 µM (inactive) | 38.7 µM (inactive) | 25.5 µM (inactive) | 46.2 µM (inactive) | 34.4 µM (inactive) | 25.4 µM (inactive) | 71.1 µM (inactive) | – | –
COC(=O)c1c(C)cccc1C1CN=NC12Cc1cc(C)c(C)cc1C2=O (centres undefined) | 27.8 µM (inactive) | 57.4 µM (inactive) | 39.4 µM (inactive) | 30.5 µM | 17.5 µM (inactive) | 30.4 µM (inactive) | 30.5 µM (inactive) | 65.9 µM (inactive) | 33.9 µM (inactive) | 57.8 µM (inactive) | 29.9 µM (inactive) | 62.4 µM (inactive) | 52 µM (inactive) | – | > 100 µM (inactive) | 55.2 µM (inactive) | 75.3 µM (inactive) | 44.5 µM (inactive) | – | –
CS(=O)(=O)OCCCSCCSCCCOS(C)(=O)=O | > 100 µM (inactive) | – | > 100 µM (inactive) | > 100 µM | > 100 µM (inactive) | 40.2 µM (inactive) | > 100 µM (inactive) | > 100 µM (inactive) | > 100 µM (inactive) | – | > 100 µM (inactive) | > 100 µM (inactive) | > 100 µM (inactive) | – | > 100 µM (inactive) | > 100 µM (inactive) | > 100 µM (inactive) | > 100 µM (inactive) | > 100 µM (inactive) | –
COc1ccc(OC)c(NC(=O)CCC/C(CC(=O)c2ccc(O)c(OC)c2)=N\Nc2nnc(C)n2N)c1 | > 100 µM (inactive) | > 100 µM (inactive) | > 100 µM (inactive) | > 100 µM | 90.2 µM (inactive) | > 100 µM (inactive) | > 100 µM (inactive) | – | > 100 µM (inactive) | > 100 µM (inactive) | > 100 µM (inactive) | > 100 µM (inactive) | > 100 µM (inactive) | > 100 µM (inactive) | > 100 µM (inactive) | > 100 µM (inactive) | > 100 µM (inactive) | > 100 µM (inactive) | > 100 µM (inactive) | > 100 µM (inactive)
CC(C)c1cc(CN(C)C)c(O)c(C(C)(C)C)c1 | 23.2 µM (inactive) | 16.8 µM (inactive) | 20.7 µM (inactive) | 23.7 µM | 6.04 µM (inactive) | – | 21.4 µM (inactive) | 36.2 µM (inactive) | 26.2 µM (inactive) | 22.2 µM (inactive) | 34.7 µM (inactive) | 17.4 µM (inactive) | 28.8 µM (inactive) | 13.9 µM (inactive) | – | 98.9 µM (inactive) | 18.9 µM (inactive) | 23.6 µM (inactive) | – | 20.7 µM (inactive)
Cc1cc(O)c2c(c1)C(C1c3cccc(O)c3C(=O)c3c(O)cc(C)cc31)c1cccc(O)c1C2=O (centres undefined) | 0.239 µM (active) | 0.337 µM (active) | 0.177 µM (active) | 0.317 µM | 0.879 µM (active) | 0.258 µM (active) | 0.166 µM (active) | 0.405 µM (active) | 0.615 µM (active) | 0.329 µM (active) | 0.37 µM (active) | 0.25 µM (active) | 0.26 µM (active) | 0.158 µM (active) | 0.21 µM (active) | 0.356 µM (active) | 0.322 µM (active) | 0.239 µM (active) | 0.345 µM (active) | –
